# According to article PMC3792216 (Biomolecules & Therapeutics, 2012):
# How the values were obtained:
# [1] = biological target: estrogen receptor beta (hERβ) (Homo sapiens, UniProt Q92731); experiment: competitive displacement of [3H]-E2 radioligand, filter binding
# [2] = biological target: estrogen receptor alpha (hERα) (Homo sapiens, UniProt P03372); experiment: as above
# estrogen receptor alpha (hERα), sequence (P03372 whole entry): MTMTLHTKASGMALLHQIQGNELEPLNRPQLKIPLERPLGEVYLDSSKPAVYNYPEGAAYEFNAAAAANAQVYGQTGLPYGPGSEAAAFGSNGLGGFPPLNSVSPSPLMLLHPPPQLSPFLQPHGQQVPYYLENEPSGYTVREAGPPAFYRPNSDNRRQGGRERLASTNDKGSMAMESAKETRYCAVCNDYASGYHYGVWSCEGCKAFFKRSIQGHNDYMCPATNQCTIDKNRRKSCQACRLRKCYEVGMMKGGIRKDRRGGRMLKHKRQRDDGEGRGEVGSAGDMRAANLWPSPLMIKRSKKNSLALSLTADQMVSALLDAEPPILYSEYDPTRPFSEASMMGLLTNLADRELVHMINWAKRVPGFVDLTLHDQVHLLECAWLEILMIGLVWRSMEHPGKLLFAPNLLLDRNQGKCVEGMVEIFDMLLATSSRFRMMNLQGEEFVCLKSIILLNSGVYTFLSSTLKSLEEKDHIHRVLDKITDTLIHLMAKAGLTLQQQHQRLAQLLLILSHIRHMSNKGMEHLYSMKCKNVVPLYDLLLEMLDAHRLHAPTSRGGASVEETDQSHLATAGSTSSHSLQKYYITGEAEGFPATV
# estrogen receptor beta (hERβ), sequence (Q92731 whole entry): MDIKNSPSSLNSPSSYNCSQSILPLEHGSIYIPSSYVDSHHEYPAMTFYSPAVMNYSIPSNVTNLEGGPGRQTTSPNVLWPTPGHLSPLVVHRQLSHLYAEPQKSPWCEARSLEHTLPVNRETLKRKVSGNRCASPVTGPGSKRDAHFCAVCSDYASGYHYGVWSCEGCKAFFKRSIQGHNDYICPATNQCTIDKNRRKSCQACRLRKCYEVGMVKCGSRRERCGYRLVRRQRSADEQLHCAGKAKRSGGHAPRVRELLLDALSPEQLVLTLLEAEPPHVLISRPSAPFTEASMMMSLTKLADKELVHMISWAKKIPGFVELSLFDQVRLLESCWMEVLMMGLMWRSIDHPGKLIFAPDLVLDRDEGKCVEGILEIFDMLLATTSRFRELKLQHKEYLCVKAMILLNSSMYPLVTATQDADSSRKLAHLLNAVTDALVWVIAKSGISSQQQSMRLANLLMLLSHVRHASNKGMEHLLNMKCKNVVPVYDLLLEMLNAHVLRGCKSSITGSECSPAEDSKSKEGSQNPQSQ
smiles,measurement,setting,value
CC(C)=CCc1cc2c(cc1O)O[C@H](c1ccc(O)cc1)CC2=O [bavachin],IC50,[1],38 µM
same,IC50,[2],65.7 µM
